# Results as given in patent US20130226069A1, “ACNE THERAPEUTIC AGENT AND SEBUM SECERNENT INHIBITOR WHICH COMPRISE INDOLE-3-ALKYLCARBO XYLICACID, AND KITS FOR PHOTODYNAMIC THERAPY CONTAINING THE SAME” (WELSKIN CO., LTD., priority 2007, published 2013).
# What was measured:
# P. acnes 706486 = test: Bacteriocidal effect of IAA with or without IPL irradiation on P. acnes, colony count; type: cell-based, Propionibacterium acnes
# Protocol: (§1) P. acnes 706486 and S. aureus W-1-14 was used for this experiment. Mueller Hinton II broth (Becton, Dickinson Co., Sparks, U.S.A) was used for culture of bacteria. The cultured S. aureus colony was dissolved with phosphate buffered saline (PBS, Invitrogen Co., NY, U.S.A) such that the McFarland turbidity became 0.5. The resultant bacterial solution was at the concentration of […]. Then, the bacterial solution was further diluted to the concentration of 1×10^8/ml and 10 μl of the bacterial solution was spread onto the Mueller Hinton II agar (Becton, Dickinson Co., Sparks, U.S.A) plate followed by drying in clean bench for 30 min. IAA was dissolved with Dulbecco's phosphate buffered saline (DPBS, Invitrogen Co., NY, U.S.A) to obtain samples of IAA concentration of 20 mM, 10 mM, 5 mM, 1 mM and 0.5 mM. Three minutes after adding 4 ml of 0 mM, 0.5 mM, 1 mM, 5 mM, 10 mM, and 20 mM IAA solution to 6 bacterial solution inoculated mediums respectively, Intermittent Pulse Laser (IPL, Ellipse Flex DDD, Denmark) was irradiated to the mediums. 10 J/cm^2 of the IPL of wavelength of 400 nm to 720 nm was irradiated to the mediums, using an applicator equipped with a filter. One minute after IPL irradiation, the mediums were washed for two times with PBS and incubated at 37° C. for 24 hrs and then the number of colonies was counted respectively. Four minutes after adding 4 ml of 0 mM, 0.5 mM, 1 mM, 5 mM, 10 mM, and 20 mM IAA solution to another 6 bacterial solution inoculated mediums, the mediums were treated as the above-mentioned process except that IPL was not irradiated, and then the number of colonies was counted respectively. The above-mentioned process was repeated except that P. acnes inoculated mediums were employed in place of S. aureus inoculated mediums and cultured in an anaerobic chamber substituted with nitrogen, and then the number of colonies was counted.
# S. aureus W-1-14 = test: Bacteriocidal effect of IAA with or without IPL irradiation on S. aureus, colony count; type: cell-based, Staphylococcus aureus
# Protocol: as §1
# [1] = Improvement of acne by IAA and light, half-face, count of inflammatory lesions; type: in vivo
# Description: IAA was applied to only half of face and 20 J of IPL was irradiated. The face was irradiated 3 times at 2 weeks intervals and the number of inflammatory lesions was counted.
# [2] = Sebum secretion inhibition by IAA and IPL, half-face; type: in vivo
# Protocol: As described in Example 2, IAA was applied to only half of face and 20 J of IPL was irradiated. The face was irradiated 3 times at 2 weeks intervals and the amount of sebum secretion was measured.
# [3] = IAA with IPL, irradiated 3 times at 2 weeks intervals
smiles,measurement,setting,value
"O=C(O)Cc1c[nH]c2ccccc12 [IAA, Indole-3-acetic acid]",number of colonies,"P. acnes 706486; 5 mM or more IAA solution, IPL not irradiated",68 % of control group
same,growth of bacteria,"P. acnes 706486; 20 mM IAA solution, with IPL irradiation",no growth of bacteria
same,inhibitory effects on P. acnes proliferation,"P. acnes 706486; IAA with IPL irradiation, 10 J/cm^2, 400 nm to 720 nm",dramatic inhibitory effects
same,number of colonies,"S. aureus W-1-14; 20 mM IAA solution, without IPL irradiation",60 % of control group
same,number of colonies,S. aureus W-1-14; IPL irradiation and 0.5 mM IAA solution,63 % of control group
same,number of colonies,S. aureus W-1-14; IPL irradiation and 1 mM IAA solution,32 % of control group
same,"Number of inflammatory lesion (mean ± SD), T1","[1]; IAA + IPL 20 J, after 2 weeks, n = 14, baseline T0 16.21 ± 9.18",15.50 ± 9.03
same,"Number of inflammatory lesion (mean ± SD), T2","[1]; IAA + IPL 20 J, after 4 weeks, n = 14, baseline T0 16.21 ± 9.18",13.93 ± 8.54
same,"Number of inflammatory lesion (mean ± SD), T3","[1]; IAA + IPL 20 J, after 6 weeks, n = 14, baseline T0 16.21 ± 9.18",13.93 ± 8.30
same,Change in number of inflammatory lesion T1-T0 (mean ± SD),"[1]; IAA + IPL, 2 weeks versus baseline, p 0.246",−0.71 ± 2.20
same,Change in number of inflammatory lesion T2-T0 (mean ± SD),"[1]; IAA + IPL, 4 weeks versus baseline, p 0.024",−2.29 ± 3.36
same,Change in number of inflammatory lesion T3-T0 (mean ± SD),"[1]; IAA + IPL, 6 weeks versus baseline, p 0.026",−2.29 ± 3.41
same,improvement of acne (number of inflammatory lesions),[1]; [3],significant improvement
same,"sebum secretion (mean ± SD), T1","[2]; IAA + IPL 20 J, after 2 weeks, n = 14, baseline T0 99.64 ± 56.93",114.71 ± 63.83
same,"sebum secretion (mean ± SD), T2","[2]; IAA + IPL 20 J, after 4 weeks, n = 14, baseline T0 99.64 ± 56.93",70.43 ± 42.80
same,"sebum secretion (mean ± SD), T3","[2]; IAA + IPL 20 J, after 6 weeks, n = 14, baseline T0 99.64 ± 56.93",65.79 ± 27.90
same,Change of sebum secretion T1-T0 (mean ± SD),"[2]; IAA + IPL, 2 weeks versus baseline, p 0.433",15.07 ± 69.70
same,Change of sebum secretion T2-T0 (mean ± SD),"[2]; IAA + IPL, 4 weeks versus baseline, p 0.032",−29.21 ± 45.67
same,Change of sebum secretion T3-T0 (mean ± SD),"[2]; IAA + IPL, 6 weeks versus baseline, p 0.015",−33.86 ± 44.98
same,inhibitory effect of sebum secretion,[2]; [3],significant inhibitory effect of sebum secretion
